In ChEMBL document CHEMBL5291721, “A preclinical secondary pharmacology resource illuminates target-adverse drug reaction associations of marketed drugs” (Nat Commun, 2023) one finds AC50 data, which are given here for 10 molecules.

Targets include Melanocortin receptor 3 (Homo sapiens, UniProt P41968); Mu-type opioid receptor (Homo sapiens, UniProt P35372); D(3) dopamine receptor (Homo sapiens, UniProt P35462); Histamine H1 receptor (Homo sapiens, UniProt P35367).
For assay [1], the target named is T1, Muscarinic acetylcholine receptor M2 (Homo sapiens, UniProt P08172).
T1 sequence (P08172 whole entry): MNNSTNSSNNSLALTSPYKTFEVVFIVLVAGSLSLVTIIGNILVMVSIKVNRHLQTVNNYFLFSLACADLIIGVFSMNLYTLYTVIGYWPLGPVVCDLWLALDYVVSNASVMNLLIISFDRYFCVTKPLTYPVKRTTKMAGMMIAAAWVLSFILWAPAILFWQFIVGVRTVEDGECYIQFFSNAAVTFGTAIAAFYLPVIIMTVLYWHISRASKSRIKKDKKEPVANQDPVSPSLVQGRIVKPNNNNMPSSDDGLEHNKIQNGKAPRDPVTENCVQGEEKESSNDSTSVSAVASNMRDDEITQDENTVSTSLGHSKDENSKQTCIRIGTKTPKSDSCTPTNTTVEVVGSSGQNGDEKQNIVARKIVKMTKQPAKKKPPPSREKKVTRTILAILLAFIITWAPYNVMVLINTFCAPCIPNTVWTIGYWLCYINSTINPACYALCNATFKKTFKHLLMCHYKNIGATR
It is filed as functional, cell-based.

The target in a further assay is T2, Endothelin-1 receptor (Homo sapiens, UniProt P25101).
T2 sequence (P25101 whole entry): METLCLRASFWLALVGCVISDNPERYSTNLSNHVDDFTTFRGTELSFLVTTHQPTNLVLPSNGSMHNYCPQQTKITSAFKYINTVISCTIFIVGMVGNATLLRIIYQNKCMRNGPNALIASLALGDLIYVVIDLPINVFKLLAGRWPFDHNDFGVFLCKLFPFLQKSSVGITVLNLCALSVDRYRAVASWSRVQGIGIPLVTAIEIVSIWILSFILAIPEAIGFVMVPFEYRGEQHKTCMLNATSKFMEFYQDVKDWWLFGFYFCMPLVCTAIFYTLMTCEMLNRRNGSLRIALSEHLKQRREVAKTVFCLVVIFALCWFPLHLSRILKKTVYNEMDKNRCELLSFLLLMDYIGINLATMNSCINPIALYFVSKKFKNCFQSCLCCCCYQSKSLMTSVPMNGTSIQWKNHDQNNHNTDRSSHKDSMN

The target of a further assay is D(1A) dopamine receptor (Homo sapiens, UniProt P21728). It is filed as functional, cell-based.
For assay [2], the target named is Beta-2 adrenergic receptor (Homo sapiens, UniProt P07550). It is filed as functional, cell-based.
For assay [3], the target named is 5-hydroxytryptamine receptor 2A (Homo sapiens, UniProt P28223). It is filed as functional, cell-based.
Assay [4] has as its target Voltage-gated inwardly rectifying potassium channel KCNH2 (Homo sapiens, UniProt Q12809). It is filed as functional. The conditions noted are these: read-out: AC50.
For assay [5], the target named is 3',5'-cyclic-AMP phosphodiesterase 4D (Homo sapiens, UniProt Q08499). It is filed as functional.
For assay [6], the target named is T3, Type-1 angiotensin II receptor (Homo sapiens, UniProt P30556).
T3 sequence (P30556 whole entry): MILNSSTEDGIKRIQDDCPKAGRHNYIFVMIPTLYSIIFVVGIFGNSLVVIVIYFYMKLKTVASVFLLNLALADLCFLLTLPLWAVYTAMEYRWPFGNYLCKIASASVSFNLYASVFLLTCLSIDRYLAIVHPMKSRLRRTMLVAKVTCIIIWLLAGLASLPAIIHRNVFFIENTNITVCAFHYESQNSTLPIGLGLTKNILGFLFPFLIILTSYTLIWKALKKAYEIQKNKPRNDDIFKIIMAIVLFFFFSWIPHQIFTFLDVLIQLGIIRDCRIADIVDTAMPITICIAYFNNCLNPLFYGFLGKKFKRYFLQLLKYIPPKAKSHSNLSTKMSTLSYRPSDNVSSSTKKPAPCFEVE

For a further assay, the target named is Cannabinoid receptor 1 (Homo sapiens, UniProt P21554). It is filed as functional, cell-based.
Another assay concerns the target T4, Glucocorticoid receptor (Homo sapiens, UniProt P04150).
T4 sequence (P04150 whole entry): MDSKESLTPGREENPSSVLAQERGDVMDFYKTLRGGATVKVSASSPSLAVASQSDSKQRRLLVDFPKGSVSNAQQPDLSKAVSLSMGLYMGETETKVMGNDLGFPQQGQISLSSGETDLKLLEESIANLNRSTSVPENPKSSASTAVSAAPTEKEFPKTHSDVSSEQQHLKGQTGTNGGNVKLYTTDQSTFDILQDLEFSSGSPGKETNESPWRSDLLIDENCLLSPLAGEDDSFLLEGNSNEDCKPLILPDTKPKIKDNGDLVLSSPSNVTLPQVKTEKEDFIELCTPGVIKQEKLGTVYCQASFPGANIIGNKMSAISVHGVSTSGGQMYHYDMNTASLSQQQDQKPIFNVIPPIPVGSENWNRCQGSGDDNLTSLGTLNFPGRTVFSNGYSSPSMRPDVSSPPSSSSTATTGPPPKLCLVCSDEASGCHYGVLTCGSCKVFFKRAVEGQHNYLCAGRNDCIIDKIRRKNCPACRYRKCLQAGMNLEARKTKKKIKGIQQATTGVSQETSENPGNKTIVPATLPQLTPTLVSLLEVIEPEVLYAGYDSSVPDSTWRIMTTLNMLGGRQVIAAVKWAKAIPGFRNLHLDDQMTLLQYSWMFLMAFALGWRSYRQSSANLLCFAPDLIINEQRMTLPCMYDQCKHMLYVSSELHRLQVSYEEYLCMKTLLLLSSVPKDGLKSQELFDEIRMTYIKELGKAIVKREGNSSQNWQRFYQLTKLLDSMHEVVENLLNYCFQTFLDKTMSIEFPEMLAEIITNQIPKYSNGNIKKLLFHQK

SMILES strings stand for the structures.
Further: assay procedure not described here.

D(1A) dopamine receptor, sequence (P21728 whole entry): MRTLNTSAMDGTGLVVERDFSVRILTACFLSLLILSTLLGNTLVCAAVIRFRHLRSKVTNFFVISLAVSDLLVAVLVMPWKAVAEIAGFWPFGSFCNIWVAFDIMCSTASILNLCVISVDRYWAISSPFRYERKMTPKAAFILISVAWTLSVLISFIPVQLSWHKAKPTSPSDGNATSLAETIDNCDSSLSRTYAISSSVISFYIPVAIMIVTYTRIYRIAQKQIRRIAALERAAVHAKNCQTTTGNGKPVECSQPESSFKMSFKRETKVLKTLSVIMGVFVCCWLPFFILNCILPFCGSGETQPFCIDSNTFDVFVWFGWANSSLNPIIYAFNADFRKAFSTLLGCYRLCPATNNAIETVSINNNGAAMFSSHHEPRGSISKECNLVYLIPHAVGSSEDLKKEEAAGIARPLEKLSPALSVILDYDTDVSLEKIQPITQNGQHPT
Melanocortin receptor 3, sequence (P41968 whole entry): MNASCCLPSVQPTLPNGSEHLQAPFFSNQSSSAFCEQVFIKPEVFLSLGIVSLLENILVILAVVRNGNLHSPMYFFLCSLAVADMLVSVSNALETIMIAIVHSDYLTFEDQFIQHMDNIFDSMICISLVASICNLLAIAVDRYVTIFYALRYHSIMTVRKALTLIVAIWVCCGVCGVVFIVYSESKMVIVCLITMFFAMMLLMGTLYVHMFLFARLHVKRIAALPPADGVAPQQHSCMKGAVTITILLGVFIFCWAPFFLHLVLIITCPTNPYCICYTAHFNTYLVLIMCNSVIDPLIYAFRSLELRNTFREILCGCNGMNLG
D(3) dopamine receptor, sequence (P35462 whole entry): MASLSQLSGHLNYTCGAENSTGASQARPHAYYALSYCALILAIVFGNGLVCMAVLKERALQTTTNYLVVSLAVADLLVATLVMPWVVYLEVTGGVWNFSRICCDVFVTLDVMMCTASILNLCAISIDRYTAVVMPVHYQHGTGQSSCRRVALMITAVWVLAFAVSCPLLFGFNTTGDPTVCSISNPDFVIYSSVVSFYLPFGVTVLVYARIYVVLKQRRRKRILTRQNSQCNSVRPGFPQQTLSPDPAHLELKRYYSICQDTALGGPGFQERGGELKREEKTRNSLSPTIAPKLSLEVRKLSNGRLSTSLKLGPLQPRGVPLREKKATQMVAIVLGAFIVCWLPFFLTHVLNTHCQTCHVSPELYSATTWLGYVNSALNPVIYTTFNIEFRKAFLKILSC
Beta-2 adrenergic receptor, sequence (P07550 whole entry): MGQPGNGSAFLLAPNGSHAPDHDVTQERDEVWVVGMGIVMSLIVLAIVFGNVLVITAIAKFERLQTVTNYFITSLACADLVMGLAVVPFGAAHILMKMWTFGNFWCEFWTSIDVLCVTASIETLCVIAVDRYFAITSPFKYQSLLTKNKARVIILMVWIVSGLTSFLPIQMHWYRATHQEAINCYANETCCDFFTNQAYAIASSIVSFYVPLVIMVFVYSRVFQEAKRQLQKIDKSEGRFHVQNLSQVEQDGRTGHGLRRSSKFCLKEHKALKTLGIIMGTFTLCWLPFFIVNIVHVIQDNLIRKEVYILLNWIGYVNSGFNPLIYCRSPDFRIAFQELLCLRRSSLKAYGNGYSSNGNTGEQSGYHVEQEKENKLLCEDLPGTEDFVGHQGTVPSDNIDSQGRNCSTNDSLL
5-hydroxytryptamine receptor 2A, sequence (P28223 whole entry): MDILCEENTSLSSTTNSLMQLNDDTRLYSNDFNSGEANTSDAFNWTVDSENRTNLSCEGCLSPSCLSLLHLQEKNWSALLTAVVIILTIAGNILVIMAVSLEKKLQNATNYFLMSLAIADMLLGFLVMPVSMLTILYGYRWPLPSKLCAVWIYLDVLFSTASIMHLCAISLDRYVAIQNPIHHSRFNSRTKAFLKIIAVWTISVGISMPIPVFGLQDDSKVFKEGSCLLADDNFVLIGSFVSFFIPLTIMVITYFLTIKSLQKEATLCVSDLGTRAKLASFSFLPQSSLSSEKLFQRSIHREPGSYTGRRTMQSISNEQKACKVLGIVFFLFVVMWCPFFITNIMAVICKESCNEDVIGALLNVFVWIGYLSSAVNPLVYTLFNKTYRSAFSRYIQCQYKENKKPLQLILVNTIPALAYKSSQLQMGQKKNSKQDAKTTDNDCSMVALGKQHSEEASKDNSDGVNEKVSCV
Histamine H1 receptor, sequence (P35367 whole entry): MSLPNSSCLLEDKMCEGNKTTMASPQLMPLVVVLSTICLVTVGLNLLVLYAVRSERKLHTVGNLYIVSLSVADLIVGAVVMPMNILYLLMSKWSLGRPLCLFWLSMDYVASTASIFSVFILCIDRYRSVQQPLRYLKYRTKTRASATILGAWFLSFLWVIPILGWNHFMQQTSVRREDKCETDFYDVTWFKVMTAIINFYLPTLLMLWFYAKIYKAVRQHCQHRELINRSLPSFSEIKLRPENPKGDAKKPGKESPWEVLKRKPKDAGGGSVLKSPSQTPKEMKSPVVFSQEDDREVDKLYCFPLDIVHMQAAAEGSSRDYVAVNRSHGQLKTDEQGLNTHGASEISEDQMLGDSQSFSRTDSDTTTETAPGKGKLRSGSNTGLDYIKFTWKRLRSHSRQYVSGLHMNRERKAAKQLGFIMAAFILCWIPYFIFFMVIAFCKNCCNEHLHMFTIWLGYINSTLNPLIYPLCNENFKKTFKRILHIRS
Voltage-gated inwardly rectifying potassium channel KCNH2, sequence (Q12809 whole entry): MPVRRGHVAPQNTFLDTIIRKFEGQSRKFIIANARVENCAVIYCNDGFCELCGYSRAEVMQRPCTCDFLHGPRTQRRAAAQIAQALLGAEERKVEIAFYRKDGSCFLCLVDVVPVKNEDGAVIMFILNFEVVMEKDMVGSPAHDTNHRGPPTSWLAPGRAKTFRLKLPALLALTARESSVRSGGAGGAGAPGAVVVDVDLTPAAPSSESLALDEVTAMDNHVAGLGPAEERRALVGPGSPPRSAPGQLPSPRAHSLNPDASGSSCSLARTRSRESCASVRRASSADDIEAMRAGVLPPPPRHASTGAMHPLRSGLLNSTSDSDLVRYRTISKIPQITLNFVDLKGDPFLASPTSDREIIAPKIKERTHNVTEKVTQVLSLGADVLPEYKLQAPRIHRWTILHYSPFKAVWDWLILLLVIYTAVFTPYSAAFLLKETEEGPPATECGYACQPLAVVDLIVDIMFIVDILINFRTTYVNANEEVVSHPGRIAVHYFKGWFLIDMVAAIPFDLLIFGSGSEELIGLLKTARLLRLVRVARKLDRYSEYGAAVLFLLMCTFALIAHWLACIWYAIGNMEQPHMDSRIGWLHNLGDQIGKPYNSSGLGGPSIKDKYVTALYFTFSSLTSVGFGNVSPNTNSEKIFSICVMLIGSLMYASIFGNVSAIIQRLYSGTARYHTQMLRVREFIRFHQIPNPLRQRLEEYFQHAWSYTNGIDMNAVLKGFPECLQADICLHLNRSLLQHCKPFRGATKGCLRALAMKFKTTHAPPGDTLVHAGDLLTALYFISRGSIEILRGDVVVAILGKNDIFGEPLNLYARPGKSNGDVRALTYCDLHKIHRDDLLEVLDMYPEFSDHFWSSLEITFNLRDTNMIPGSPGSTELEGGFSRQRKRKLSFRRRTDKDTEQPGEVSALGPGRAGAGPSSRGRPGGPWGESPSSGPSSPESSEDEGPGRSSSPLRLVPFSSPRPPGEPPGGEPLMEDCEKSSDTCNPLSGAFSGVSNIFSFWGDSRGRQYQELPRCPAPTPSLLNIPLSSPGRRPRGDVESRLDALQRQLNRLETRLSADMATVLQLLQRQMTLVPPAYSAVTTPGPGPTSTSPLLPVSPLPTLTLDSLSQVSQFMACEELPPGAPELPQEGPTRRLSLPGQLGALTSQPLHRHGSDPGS
Cannabinoid receptor 1, sequence (P21554 whole entry): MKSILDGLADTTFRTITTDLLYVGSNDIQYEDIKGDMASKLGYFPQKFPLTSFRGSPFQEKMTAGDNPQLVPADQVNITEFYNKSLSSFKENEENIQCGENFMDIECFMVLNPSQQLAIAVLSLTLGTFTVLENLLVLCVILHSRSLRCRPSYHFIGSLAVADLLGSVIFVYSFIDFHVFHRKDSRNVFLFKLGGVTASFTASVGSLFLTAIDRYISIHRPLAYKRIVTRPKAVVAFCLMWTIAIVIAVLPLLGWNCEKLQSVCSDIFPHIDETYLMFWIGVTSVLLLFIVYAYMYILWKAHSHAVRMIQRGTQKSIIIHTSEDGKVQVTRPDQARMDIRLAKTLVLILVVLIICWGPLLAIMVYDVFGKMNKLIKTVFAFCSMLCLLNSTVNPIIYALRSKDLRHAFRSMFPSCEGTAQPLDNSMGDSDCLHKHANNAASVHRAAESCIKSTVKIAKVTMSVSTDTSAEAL
3',5'-cyclic-AMP phosphodiesterase 4D, sequence (Q08499 whole entry): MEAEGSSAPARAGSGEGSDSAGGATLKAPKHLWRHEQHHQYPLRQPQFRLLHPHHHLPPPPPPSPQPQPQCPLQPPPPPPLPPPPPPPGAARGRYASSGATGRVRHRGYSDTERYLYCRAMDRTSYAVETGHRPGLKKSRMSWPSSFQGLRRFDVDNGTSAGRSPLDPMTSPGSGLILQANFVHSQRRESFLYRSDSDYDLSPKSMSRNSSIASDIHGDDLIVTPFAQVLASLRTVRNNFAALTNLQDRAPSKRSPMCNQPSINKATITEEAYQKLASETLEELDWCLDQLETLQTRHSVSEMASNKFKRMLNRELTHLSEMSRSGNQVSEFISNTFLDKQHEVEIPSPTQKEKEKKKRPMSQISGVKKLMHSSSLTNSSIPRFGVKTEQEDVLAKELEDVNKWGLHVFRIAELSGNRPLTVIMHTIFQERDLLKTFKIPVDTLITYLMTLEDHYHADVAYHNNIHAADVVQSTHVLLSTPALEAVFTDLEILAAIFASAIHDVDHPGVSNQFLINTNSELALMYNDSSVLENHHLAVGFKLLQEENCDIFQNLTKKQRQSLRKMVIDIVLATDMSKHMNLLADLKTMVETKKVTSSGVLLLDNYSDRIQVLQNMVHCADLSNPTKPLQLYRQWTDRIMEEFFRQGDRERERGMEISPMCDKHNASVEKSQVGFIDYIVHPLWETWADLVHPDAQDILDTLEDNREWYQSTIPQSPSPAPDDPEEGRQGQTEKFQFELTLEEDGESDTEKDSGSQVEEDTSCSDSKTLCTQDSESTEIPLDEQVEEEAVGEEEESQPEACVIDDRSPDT

On to `[H]/N=C(/N)c1ccc(NCc2nc3cc(C(=O)N(CCC(=O)O)c4ccccn4)ccc3n2C)cc1` [DABIGATRAN], for which the AC50 (in assay [1]; at Melanocortin receptor 3; on Mu-type opioid receptor; on Endothelin-1 receptor; on D(1A) dopamine receptor; on D(3) dopamine receptor) was greater than 30 µM in each case. Moreover, the AC50 (in [2]; in [3]; in assay [4]; in assay [5]; in [6]; at Cannabinoid receptor 1) was greater than 30 µM throughout. This molecule returned an AC50 on Histamine H1 receptor greater than 30 µM.
With `O=C1CN=C(c2ccccc2)c2cc(Cl)ccc2N1CC(F)(F)F` [HALAZEPAM], the AC50 (in [1]; at Melanocortin receptor 3; at Glucocorticoid receptor; on Endothelin-1 receptor; at D(1A) dopamine receptor; at D(3) dopamine receptor) was greater than 30 µM each time. Also, the AC50 (in assay [2]; in assay [3]; in [4]; in [5]; in assay [6]; on Cannabinoid receptor 1) was greater than 30 µM in each case. Also, the AC50 on Histamine H1 receptor was greater than 30 µM.
Take `C=C1CC[C@@]2(O)[C@H]3Cc4ccc(O)c5c4[C@@]2(CCN3CC2CC2)[C@H]1O5`: the AC50 (in assay [1]; at Melanocortin receptor 3; at Glucocorticoid receptor; on Endothelin-1 receptor; on D(1A) dopamine receptor; on D(3) dopamine receptor) was greater than 30 µM each time. The AC50 in assay [2] is greater than 30 µM; in [3], greater than 30 µM; in [4], 28 µM; in [5] it was greater than 30 µM; in assay [6], greater than 30 µM; at Cannabinoid receptor 1, greater than 30 µM. Also, on Histamine H1 receptor, the AC50 was greater than 30 µM.
Regarding `Nc1ncnc2c1ncn2[C@@H]1O[C@H](COP(=O)(O)O)[C@@H](O)[C@H]1O` [ADENOSINE PHOSPHATE], the AC50 (in [1]; at Melanocortin receptor 3; at Glucocorticoid receptor; on Endothelin-1 receptor; at D(1A) dopamine receptor; at D(3) dopamine receptor) was greater than 30 µM each time. In addition, the AC50 in assay [2] is 9.5 µM; in assay [3], greater than 30 µM; in assay [4], 15 µM; in assay [5], 14 µM; in assay [6], greater than 30 µM; at Cannabinoid receptor 1, greater than 30 µM. The molecule further registered an AC50 at Histamine H1 receptor greater than 30 µM.
`O=C(O)Cc1cn(-c2ccccc2)nc1-c1ccc(Cl)cc1` [LONAZOLAC]: the AC50 (in assay [1]; on Melanocortin receptor 3; on Glucocorticoid receptor; on Endothelin-1 receptor; at D(1A) dopamine receptor; at D(3) dopamine receptor) was greater than 30 µM each time. Also, the AC50 (in assay [2]; in [3]; in assay [4]; in [5]; in [6]; on Cannabinoid receptor 1) was greater than 30 µM in each case. On Histamine H1 receptor, this molecule returned an AC50 greater than 30 µM.
Turning to `C1=Cc2cccc(OCC3CNCCO3)c2C1` (stereo not given) [INDELOXAZINE], the AC50 (in [1]; on Melanocortin receptor 3; on Glucocorticoid receptor; on Endothelin-1 receptor; at D(1A) dopamine receptor; on D(3) dopamine receptor) was greater than 30 µM in each case. Moreover, the AC50 (in assay [2]; in assay [3]; in [4]; in assay [5]; in assay [6]; at Cannabinoid receptor 1) was greater than 30 µM throughout. In addition, half-maximal activity at Histamine H1 receptor (AC50) was put at 17 µM.
In the case of `Cc1c(Cl)cccc1Nc1ccccc1C(=O)O` [TOLFENAMIC ACID], the AC50 (in assay [1]; on Melanocortin receptor 3; at Glucocorticoid receptor; on Endothelin-1 receptor; on D(1A) dopamine receptor; at D(3) dopamine receptor) was greater than 30 µM in each case. Besides, the AC50 (in assay [2]; in assay [3]; in assay [4]; in assay [5]; in [6]; at Cannabinoid receptor 1) was greater than 30 µM each time. This molecule also registered a half-maximal activity concentration (AC50) on Histamine H1 receptor greater than 30 µM.
For the molecule `CCC(C(=O)O)c1ccc(CC(C)C)cc1` (stereo not given) [BUTIBUFEN], the AC50 (in assay [1]; at Melanocortin receptor 3; at Glucocorticoid receptor; on Endothelin-1 receptor; on D(1A) dopamine receptor; at D(3) dopamine receptor) was greater than 30 µM in each case. Also, the AC50 (in assay [2]; in [3]; in assay [4]; in assay [5]; in assay [6]; at Cannabinoid receptor 1) was greater than 30 µM each time. For the same molecule, the AC50 at Histamine H1 receptor was greater than 30 µM.
In the case of `CCCCCCC(C)(C)c1cc(O)c2c(c1)OC(C)(C)C1CCC(=O)CC21` (stereo not given) [NABILONE], the AC50 (in assay [1]; at Melanocortin receptor 3; at Glucocorticoid receptor; on Endothelin-1 receptor; on D(1A) dopamine receptor; on D(3) dopamine receptor) was greater than 30 µM in each case. The AC50 in [2] was greater than 30 µM; in [3], greater than 30 µM; in assay [4] it was greater than 30 µM; in assay [5] it was greater than 30 µM; in [6] it was greater than 30 µM; on Cannabinoid receptor 1, 0.168 µM. This molecule yielded an AC50 at Histamine H1 receptor greater than 30 µM.
With `C[C@H]1C[C@@H]2[C@H]([C@@H](O)C[C@@]3(C)[C@H]2CC[C@]3(O)C(=O)COC(=O)CCC(=O)O)[C@@]2(C)C=CC(=O)C=C12` [METHYLPREDNISOLONE HEMISUCCINATE], the AC50 is greater than 30 µM in assay [1]; greater than 30 µM on Melanocortin receptor 3; 0.67 µM on Glucocorticoid receptor; greater than 30 µM at Endothelin-1 receptor; greater than 30 µM at D(1A) dopamine receptor; greater than 30 µM at D(3) dopamine receptor. For the same molecule, the AC50 (in [2]; in assay [3]; in assay [4]; in assay [5]; in assay [6]; on Cannabinoid receptor 1) was greater than 30 µM each time. The molecule also gave an AC50 at Histamine H1 receptor greater than 30 µM.
